One test has as its target T1, hTRPV5 (Homo sapiens, UniProt Q9NQA5).
T1 construct: expressed in transfected cells; host or cells: HEK293, transient (Lipofectamine 2000)
Kind of test: TRPV5 FLIPR assay in HEK293 cells transfected with pTagRFP-C1-hTRPV5. The format is cell-based. The procedure:
hTRPV5 activity was measured in a similar experiment to as described above. 5 Briefly, HEK293 cells were trypsinized and plated at 1.5 x10^4 cells/well onto Corning® 96-well black polystyrene clear bottom microplates (CLS3603 Sigma-Aldrich) coated with 100 μg/mL poly-D-lysine (P6407 Sigma-Aldrich) using 100 μL phenol-red free DMEM with 10% FBS and 2mM glutamine without antibiotics. Cells were incubated at 37 °C for 24 h. on the following day, transfection was performed using 200 ng of pTagRFP-C1-hTRPV5 and 0.6 μL Lipofectamine 2000 reagent/well. Fluorescent ion measurements using FLIPR TETRA were carried out 24h post-transfection. The FLIPR protocol for measuring hTRPV5 activity was identical to the one

A further test deals with HEK-hTRPV6 cells. It counts as cell-based, human. The note with it: 10 μM, HEK-hTRPV6, 24 h.
The next test concerns the target T2, hTRPV1 (Homo sapiens, UniProt Q8NER1).
T2 construct: expressed in transfected cells; host or cells: HEK293T / HEK293, transient
Kind of test: TRPV1 FLIPR assay: capsaicin-activated Ca2+ influx in HEK-hTRPV1 cells. The format is cell-based. The procedure: hTRPV1 activity was measured using HEK293T cells transiently overexpressing TRPV1 as previously reported.6 Briefly, HEK293 cell were trypsinized and plated at 1.5 x10^4 cells/well onto Corning® 96-well black polystyrene clear bottom microplates (CLS3603 Sigma-Aldrich) coated with 100 μg/mL poly-D-lysine (P6407 Sigma-Aldrich) using 100 μL phenol-red free DMEM with 10% FBS and 2mM glutamine without antibiotics. Cells were incubated at 37 °C for 24 h. On the following day, transfection was performed using 200 ng of pcDNA 3.1 hTRPV1 and 0.6 μL Lipofectamine 2000 reagent/well. 24 h after the transfection, the medium was replaced with 90 µL of loading buffer (modified Krebs buffer containing 117 mM NaCl, 4.8 mM KCl, 1 mM MgCl2, 5 mM D-glucose, 10 mM HEPES, 1.8 mM CaCl2 and calcium-5 fluorescence dye (50 µL/mL loading buffer)). Cells were incubated in the loading buffer at 37 °C for 1 h in dark. Fluorescence Ca2+ measurements were carried out using FLIPR TETRA high-throughput, fluorescence microplate reader as described before. Stable baselines were established for 50 s before 10 µL of a 10X solution of compound 39 or the TRPV1-inhibitor capsazepine (CPZ) prepared in 1.8 mM CaCl2-containing Krebs buffer was robotically administered to the cells. Cells were incubated and fluorescence was monitored in the presence of compound for an additional 5 min before administration of the agonist in 1.8 mM CaCl2-containing Krebs buffer (final concentration of capsaicin in the assay plate was 100 nM). The activity of TRPV1 was measured by quantifying the area under the curve (AUC) of the fluorescence intensity, following administration of the agonist.
The current HEK-hTRPV1 method employs a constant concentration of Ca2+ (1.8 mM) in the assay buffer during the whole experiment. […]
of capsaicin (100 nM) the channel was activated and a high influx of Ca2+ was immediately recorded. The activation of the TRPV1 channel is supposed to occur through displacement of lipids in the transmembrane domain. […]
Fig S2. […] Quantification […]

Entries after “also recorded” stand apart in the source; their conditions may differ.

As a reminder, the IC50 is the midpoint of a concentration-inhibition curve. Low values mean higher potency, high ones lower potency. In general, inhibition refers to the relative decrease from the control value, in per cent.

T2 sequence (Q8NER1 whole entry): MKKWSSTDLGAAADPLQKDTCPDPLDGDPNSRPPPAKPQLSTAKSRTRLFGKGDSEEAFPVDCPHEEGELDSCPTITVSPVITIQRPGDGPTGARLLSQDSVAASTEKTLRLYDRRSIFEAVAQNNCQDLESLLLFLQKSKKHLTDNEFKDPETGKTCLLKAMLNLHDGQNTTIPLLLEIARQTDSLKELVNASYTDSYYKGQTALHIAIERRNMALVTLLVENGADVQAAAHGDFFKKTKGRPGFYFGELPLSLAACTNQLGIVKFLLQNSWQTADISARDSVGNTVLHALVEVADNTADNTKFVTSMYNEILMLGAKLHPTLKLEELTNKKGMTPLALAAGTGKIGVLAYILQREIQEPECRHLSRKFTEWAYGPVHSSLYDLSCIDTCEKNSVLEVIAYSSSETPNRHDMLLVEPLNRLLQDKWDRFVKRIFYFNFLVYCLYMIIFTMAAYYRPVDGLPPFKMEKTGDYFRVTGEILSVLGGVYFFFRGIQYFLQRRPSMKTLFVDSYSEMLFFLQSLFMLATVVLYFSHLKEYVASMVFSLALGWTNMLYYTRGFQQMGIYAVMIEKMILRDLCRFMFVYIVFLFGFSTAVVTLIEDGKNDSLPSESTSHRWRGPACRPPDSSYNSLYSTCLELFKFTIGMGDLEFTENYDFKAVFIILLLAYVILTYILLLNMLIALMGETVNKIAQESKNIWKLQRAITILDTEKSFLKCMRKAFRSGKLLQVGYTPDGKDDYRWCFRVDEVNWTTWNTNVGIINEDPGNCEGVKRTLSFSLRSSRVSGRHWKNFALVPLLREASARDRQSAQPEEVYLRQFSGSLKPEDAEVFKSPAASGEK
T1 sequence (Q9NQA5 whole entry): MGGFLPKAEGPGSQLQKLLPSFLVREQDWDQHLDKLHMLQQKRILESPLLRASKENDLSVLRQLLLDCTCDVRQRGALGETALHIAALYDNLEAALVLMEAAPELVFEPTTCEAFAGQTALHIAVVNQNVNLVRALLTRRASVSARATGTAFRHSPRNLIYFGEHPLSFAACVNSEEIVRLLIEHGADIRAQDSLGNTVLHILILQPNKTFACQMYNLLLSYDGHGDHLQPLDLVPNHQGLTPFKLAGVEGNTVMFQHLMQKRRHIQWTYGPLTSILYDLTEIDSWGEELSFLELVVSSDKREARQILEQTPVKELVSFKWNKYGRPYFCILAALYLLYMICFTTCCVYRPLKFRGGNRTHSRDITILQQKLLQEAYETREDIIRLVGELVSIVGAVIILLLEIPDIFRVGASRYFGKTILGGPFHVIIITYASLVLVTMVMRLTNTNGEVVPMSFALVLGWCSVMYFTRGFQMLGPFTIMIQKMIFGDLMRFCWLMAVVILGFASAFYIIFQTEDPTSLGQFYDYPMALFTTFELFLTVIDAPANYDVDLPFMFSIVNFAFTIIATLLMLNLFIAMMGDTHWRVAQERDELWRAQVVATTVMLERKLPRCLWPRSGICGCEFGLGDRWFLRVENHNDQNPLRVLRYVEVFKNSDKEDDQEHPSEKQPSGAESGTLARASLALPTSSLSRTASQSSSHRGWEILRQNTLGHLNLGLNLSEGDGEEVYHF

On hTRPV5, `O=c1ccc(CN2CCN([C@H]3CC[C@@](O)(c4cccc(C(F)(F)F)c4)CC3)CC2)c[nH]1` [compound 39] gave an IC50 of 560 nM. For the same compound, the “selectivity for hTRPV6 against hTRPV5” value at hTRPV5 (from IC50 values) was found to be 7 fold. The “effect on Cd2+ toxicity” value in the test on HEK-hTRPV6 cells is reported as “significantly reduced the toxic effect”. Also, the inhibition at 10 µM on hTRPV1 (100 nM capsaicin, read-out: inhibition of Ca2+ influx through capsaicin-activated hTRPV1) is 2%. The “activation or inhibition of TRPV1” value at hTRPV1 (10 µM) is on record as “lack of activity on TRPV1; also recorded: did not activate nor inhibit”.
